{"source": "paper PMC5809530", "about": "“Resculpting the binding pocket of APC superfamily LeuT-fold amino acid transporters” (Cellular and Molecular Life Sciences: CMLS, 2017)", "format_in_all_cases": "cell-based", "key": {"SNAT5 (SLC38A5) [1]": {"target": "T1, SNAT5 (SLC38A5) (Homo sapiens, UniProt Q8WUX1)", "T1 construct": "full length in pSPORT1, expressed in Xenopus laevis oocytes", "test": "competition with radiolabelled serine uptake in Xenopus oocytes", "conditions": "50 μM serine, 0-10 mM asparagine; pH 8.5, Na+"}, "PAT2 (SLC36A2) [2]": {"target": "PAT2 (SLC36A2) (Rattus norvegicus, UniProt Q8K415)", "sequence (Q8K415 whole entry)": "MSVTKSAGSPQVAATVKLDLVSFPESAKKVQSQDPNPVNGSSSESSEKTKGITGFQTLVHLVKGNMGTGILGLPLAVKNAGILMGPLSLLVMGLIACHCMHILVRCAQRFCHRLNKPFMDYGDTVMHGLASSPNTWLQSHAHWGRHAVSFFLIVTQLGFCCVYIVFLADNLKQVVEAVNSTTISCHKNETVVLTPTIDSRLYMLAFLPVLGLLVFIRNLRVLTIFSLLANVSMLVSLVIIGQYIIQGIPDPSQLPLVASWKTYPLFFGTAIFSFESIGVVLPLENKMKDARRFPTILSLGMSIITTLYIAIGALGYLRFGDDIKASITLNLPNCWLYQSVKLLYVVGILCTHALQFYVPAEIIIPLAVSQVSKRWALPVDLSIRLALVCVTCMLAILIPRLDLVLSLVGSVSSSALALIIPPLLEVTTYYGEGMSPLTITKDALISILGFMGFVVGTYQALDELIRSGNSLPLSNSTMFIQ", "test": "competition with radiolabelled proline uptake in Xenopus oocytes", "parameters": "full length in pSPORT1, expressed in Xenopus laevis oocytes", "conditions": "10 μM proline, 10 mM glycine; Na+-free, pH 5.5"}, "SNAT5 (SLC38A5) [3]": {"target": "T1, SNAT5 (SLC38A5)", "test": "radiolabelled serine uptake and self-competition in Xenopus oocytes", "conditions": "50 μM serine; pH 8.5, Na+"}, "PAT2 (SLC36A2) [4]": {"target": "T2, PAT2 (SLC36A2) (Rattus norvegicus, UniProt Q8K415, F159I)", "T2 construct": "full length in pSPORT1, expressed in Xenopus laevis oocytes", "T2 sequence (Q8K415 whole entry F159I)": "as the sequence (Q8K415 whole entry) above, with F159I counted along it", "test": "competition with radiolabelled proline uptake and direct uptake in Xenopus oocytes", "conditions": "10 μM proline, 0-20 mM α-ABA; Na+-free, pH 5.5"}, "SNAT5 (SLC38A5) [5]": {"target": "T3, SNAT5 (SLC38A5) (Homo sapiens, UniProt Q8WUX1, A138T)", "T3 construct": "full length in pSPORT1, expressed in Xenopus laevis oocytes", "T3 sequence (Q8WUX1 whole entry A138T)": "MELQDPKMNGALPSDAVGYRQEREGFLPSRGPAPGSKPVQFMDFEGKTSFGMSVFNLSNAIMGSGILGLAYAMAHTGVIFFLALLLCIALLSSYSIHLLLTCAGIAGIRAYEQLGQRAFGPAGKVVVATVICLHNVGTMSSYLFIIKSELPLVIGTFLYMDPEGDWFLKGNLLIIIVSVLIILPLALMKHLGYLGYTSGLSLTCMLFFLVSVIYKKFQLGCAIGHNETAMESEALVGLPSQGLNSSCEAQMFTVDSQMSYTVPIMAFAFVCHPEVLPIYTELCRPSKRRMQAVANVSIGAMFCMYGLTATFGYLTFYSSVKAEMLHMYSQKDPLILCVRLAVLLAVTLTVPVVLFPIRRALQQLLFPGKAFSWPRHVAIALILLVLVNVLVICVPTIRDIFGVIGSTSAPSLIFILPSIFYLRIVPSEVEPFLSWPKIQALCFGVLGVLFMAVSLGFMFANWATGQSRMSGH", "test": "radiolabelled alanine uptake and competition with serine uptake in Xenopus oocytes", "conditions": "50 μM substrate, 0-10 mM competitor; pH 8.5, Na+"}, "SNAT5 (SLC38A5) [6]": {"target": "T4, SNAT5 (SLC38A5) (Homo sapiens, UniProt Q8WUX1, A138I)", "T4 construct": "full length in pSPORT1, expressed in Xenopus laevis oocytes", "T4 sequence (Q8WUX1 whole entry A138I)": "as the sequence (Q8WUX1 whole entry A138T) above, with T138I counted along it", "test": "radiolabelled alanine uptake and competition with serine uptake in Xenopus oocytes", "conditions": "50 μM substrate, 0-10 mM competitor; pH 8.5, Na+"}}}
{"smiles": "NC(=O)C[C@H](N)C(=O)O", "note": "[asparagine]", "values": [{"measurement": "competition with radiolabelled serine uptake in Xenopus oocytes", "setting": "SNAT5 (SLC38A5) [1]", "value": "measured in the presence of e unlabelled serine, f asparagine, or g alanine"}]}
{"smiles": "NCC(=O)O", "note": "[glycine]", "values": [{"measurement": "competition with radiolabelled proline uptake in Xenopus oocytes", "setting": "PAT2 (SLC36A2) [2]", "value": "Glycine and alanine interact with all five carriers"}]}
{"smiles": "N[C@@H](CO)C(=O)O", "note": "[serine]", "values": [{"measurement": "radiolabelled serine uptake and self-competition in Xenopus oocytes", "setting": "SNAT5 (SLC38A5) [3]", "value": "Serine is transported well by SNAT5, whereas alanine is transported poorly"}]}
{"smiles": "CC[C@H](N)C(=O)O", "note": "[α-ABA]", "values": [{"measurement": "competition with radiolabelled proline uptake and direct uptake in Xenopus oocyt", "setting": "PAT2 (SLC36A2) [4]", "value": "PAT2-F159I not only binds Ser and α-ABA but efficiently translocates these amino acids"}]}
{"smiles": "C[C@H](N)C(=O)O", "note": "[alanine]", "values": [{"measurement": "radiolabelled alanine uptake and competition with serine uptake in Xenopus oocyt", "setting": "SNAT5 (SLC38A5) [5]", "value": "A138T and A138I mutants gain function and become excellent alanine transporters"}, {"measurement": "radiolabelled alanine uptake and competition with serine uptake in Xenopus oocyt", "setting": "SNAT5 (SLC38A5) [6]", "value": "A138T and A138I mutants gain function and become excellent alanine transporters"}]}
